Read-outs that look alike come from different tables or passages of the source. Blank lines part the entries; values can stand above or below the compound they belong to.
Experiments:
human TLR9 = target: T1, human TLR9 (Homo sapiens, UniProt Q9NR96); assay: Inhibition of human TLR9 in human B cells (IL-6 ELISA); type: cell-based; conditions: for IC50: human B cells, agonist 1018 ISS 1 μM, IL-6 readout, 48 hours, range about 0.01 to 10 μM, read-out: Human TLR9 IC50; for inhibits TLR9-dependent responses (in words): summary statement of the description
T1 construct: endogenous in cells; host or cells: primary human B cells (CD19 microbeads) from buffy coats of healthy donors
T1 sequence (Q9NR96 26-1032): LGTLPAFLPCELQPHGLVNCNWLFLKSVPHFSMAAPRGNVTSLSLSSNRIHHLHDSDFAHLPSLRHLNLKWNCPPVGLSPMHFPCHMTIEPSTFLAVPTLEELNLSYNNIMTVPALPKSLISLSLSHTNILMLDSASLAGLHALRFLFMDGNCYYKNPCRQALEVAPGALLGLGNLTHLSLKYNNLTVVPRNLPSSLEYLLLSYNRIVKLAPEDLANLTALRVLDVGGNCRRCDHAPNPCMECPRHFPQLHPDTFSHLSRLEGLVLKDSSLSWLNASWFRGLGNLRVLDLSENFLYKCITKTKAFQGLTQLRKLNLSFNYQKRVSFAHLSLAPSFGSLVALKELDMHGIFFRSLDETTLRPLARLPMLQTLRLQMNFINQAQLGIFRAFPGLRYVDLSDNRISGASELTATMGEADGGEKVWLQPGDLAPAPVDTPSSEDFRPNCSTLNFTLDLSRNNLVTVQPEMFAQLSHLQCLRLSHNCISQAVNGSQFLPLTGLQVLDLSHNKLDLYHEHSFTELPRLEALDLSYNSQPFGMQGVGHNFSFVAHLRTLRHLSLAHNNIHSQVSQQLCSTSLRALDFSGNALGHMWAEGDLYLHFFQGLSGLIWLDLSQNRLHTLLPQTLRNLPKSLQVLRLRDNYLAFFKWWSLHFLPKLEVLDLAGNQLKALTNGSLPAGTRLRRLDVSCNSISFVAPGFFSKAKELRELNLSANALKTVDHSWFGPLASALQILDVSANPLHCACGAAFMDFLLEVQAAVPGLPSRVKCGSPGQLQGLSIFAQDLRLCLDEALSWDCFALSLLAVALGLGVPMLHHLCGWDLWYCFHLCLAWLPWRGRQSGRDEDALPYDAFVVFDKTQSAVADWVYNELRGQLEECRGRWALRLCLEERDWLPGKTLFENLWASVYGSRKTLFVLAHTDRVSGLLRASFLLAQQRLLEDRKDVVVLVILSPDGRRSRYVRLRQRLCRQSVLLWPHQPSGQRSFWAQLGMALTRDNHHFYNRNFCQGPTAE
Method: Example B3—Inhibition of Human TLR9 in Human B Cells
When placed in cell culture, engagement of TLR9 with an agonist leads to expression and release of cytokines into the media.
Buffy coats from anonymized, healthy human donors. CD19 microbeads (Miltenyi Cat. No. 130-050-301). TLR9 agonist, 1018 ISS, CpG-containing DNA oligonucleotide. Human interleukin (IL)-6 ELISA kit (Mabtech Cat. No. 3460-1H-20).
Following isolation of […] from buffy coats, human B cells were plated into 96 well plates at approximately 300,000 cells per well. Test compounds were serially diluted and added to the plates. Test compounds were typically assayed using a concentration range from about 0.01 μM to about 10 μM. Certain test compounds were further assayed in an expanded dilution series using a compound concentration range from about 0.001 μM to about 30 μM. Immediately after adding test compounds, the TLR9 agonist (1018 ISS, CpG-containing DNA oligonucleotide) was added to a final concentration of 1 μM. Cells were incubated for 48 hours at 37° C. A portion of the media supernatant was analyzed for the presence of IL-6 using ELISA kits. The amount of IL-6 produced is a reflection of the amount of TLR9-dependent receptor activity. The IC50 values (the concentration at which 50% of the TLR9-dependent receptor activity is reduced) were calculated based upon the TLR9-dependent receptor activity over a range of different test compound concentrations.

human TLR8 = target: T2, human TLR8 (Homo sapiens, UniProt Q9NR97); assay: Inhibition of human TLR8 in human monocytes (TNF-alpha / IL-1 beta ELISA); type: cell-based; conditions: human monocytes, agonist ORN8L 100 μg/mL, 24 hours
T2 construct: endogenous in cells; host or cells: primary human monocytes (CD14 microbeads) from buffy coats of healthy donors
T2 sequence (Q9NR97 27-1041): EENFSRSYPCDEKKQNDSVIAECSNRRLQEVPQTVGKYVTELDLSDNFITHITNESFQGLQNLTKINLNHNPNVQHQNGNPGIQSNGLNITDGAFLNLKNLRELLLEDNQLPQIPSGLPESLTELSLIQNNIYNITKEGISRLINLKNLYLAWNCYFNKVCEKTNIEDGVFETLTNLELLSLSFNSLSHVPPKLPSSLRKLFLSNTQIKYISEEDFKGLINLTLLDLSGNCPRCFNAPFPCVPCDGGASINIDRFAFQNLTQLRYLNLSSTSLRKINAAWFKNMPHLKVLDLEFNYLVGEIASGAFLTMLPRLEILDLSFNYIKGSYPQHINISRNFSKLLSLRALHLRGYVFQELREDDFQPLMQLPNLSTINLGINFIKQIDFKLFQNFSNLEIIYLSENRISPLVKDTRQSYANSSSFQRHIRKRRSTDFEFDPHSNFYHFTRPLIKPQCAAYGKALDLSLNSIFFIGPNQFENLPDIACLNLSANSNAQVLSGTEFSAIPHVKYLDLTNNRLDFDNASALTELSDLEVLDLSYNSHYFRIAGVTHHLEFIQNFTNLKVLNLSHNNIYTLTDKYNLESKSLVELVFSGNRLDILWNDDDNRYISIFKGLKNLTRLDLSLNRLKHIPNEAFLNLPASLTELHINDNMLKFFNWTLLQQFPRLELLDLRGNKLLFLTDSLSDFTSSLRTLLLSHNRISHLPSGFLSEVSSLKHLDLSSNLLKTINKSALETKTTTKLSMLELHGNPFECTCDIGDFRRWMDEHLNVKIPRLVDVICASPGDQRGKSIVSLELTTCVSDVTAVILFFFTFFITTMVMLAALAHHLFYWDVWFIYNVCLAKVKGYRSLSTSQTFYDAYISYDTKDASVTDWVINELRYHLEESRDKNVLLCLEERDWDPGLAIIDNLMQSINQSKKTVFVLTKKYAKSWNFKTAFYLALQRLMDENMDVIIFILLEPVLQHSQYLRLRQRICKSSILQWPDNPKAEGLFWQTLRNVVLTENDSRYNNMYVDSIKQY
Text: Example B2—Inhibition of Human TLR8 in Human Monocytes
When placed in cell culture, engagement of TLR8 with an agonist leads to expression and release of cytokines into the media.
Buffy coats from anonymized, healthy human donors. CD14 microbeads (Milteny Cat. No. 130-050-201). TLR8 agonist, (5′-M2UGCUGCUUGUG-/glycerol/-GUGUUCGUCGUM2-5′ with M2=C6-linker, ORN8L, RNA oligonucleotide (Chem Genes Corp.). Human TNF-alpha ELISA kit (Mabtech Cat. No. 3510-1H-20). Human interleukin (IL)-1 beta ELISA kit (Mabtech Cat. No. 3415-1H-20).
Following isolation of monocytes from buffy coats, human monocytes were plated into 96 well plates at approximately 200,000 cells per well. Test compounds were serially diluted and added to the plates. Immediately after adding test compounds, the TLR8 agonist (ORN8L, RNA oligonucleotide) was added to a final concentration of 100 μg/mL. Cells were incubated for 24 hours at 37° C. A portion of the media supernatant was analyzed for the presence of TNF-alpha and/or IL-1 beta using ELISA kits. The amount of TNF-alpha or IL-1 beta produced is a reflection of the amount of TLR8-dependent receptor activity. The IC50 values (the concentration at which 50% of the TLR8-dependent receptor activity is reduced) were calculated based upon the TLR8-dependent receptor activity over a range of different test compound concentrations.

[1] = IL-1 beta readout, read-out: Human TLR8 IC50 IL-1b
[2] = TNF-alpha readout, read-out: Human TLR8 IC50 TNF-a

Compound: Cc1ccc(-n2nc3c(N4CCC(C(=O)N[C@H]5C[C@H](N(C)C)C5)CC4)nnc(C)c3c2C)cc1 [Compound No. 12a, 1-(3,4-dimethyl-2-(p-tolyl)-2H-pyrazolo[3,4-d]pyridazin-7-yl)-N-((1r,3r)-3-(dimethylamino)cyclobutyl)piperidine-4-carboxamide]
IC50 (human TLR9): 71 nM | IC50 (human TLR8; [1]): > 10 µM | IC50 (human TLR8; [2]): > 10 µM

Compound: Cc1ccc(-n2cc3cnnc(N4CCC(C(=O)NCCCN(C)C)CC4)c3n2)cc1 [Compound No. 29, N-(3-(dimethylamino)propyl)-1-(2-(p-tolyl)-2H-pyrazolo[3,4-d]pyridazin-7-yl)piperidine-4-carboxamide]
IC50 (human TLR9): 7 nM | inhibits TLR9-dependent responses (in words) (human TLR9): inhibit | IC50 (human TLR8; [1]): 1.61 µM | IC50 (human TLR8; [2]): > 10 µM

Compound: Cc1ccc(-c2nc3c(N4CCC(C(=O)NCCCN(C)C)CC4)cccc3n2C)cc1 [Compound No. 53, N-(3-(dimethylamino)propyl)-1-(1-methyl-2-(p-tolyl)-1H-benzo[d]imidazol-4-yl)piperidine-4-carboxamide]
IC50 (human TLR9): 2230 nM | IC50 (human TLR8; [2]): ≥ 20 µM

Compound: Cc1ccc(-n2nc3c(N4CCN(C(=O)NCCCN(C)C)CC4)nnc(C)c3c2C)cc1 [Compound No. 76, 4-(3,4-dimethyl-2-(p-tolyl)-2H-pyrazolo[3,4-d]pyridazin-7-yl)-N-(3-(dimethylamino)propyl)piperazine-1-carboxamide]
IC50 (human TLR9): 118 nM | IC50 (human TLR8; [2]): 11.7 µM

Compound: Cc1ccc(-n2nc3c(N4CCC(C(=O)NCCCN(C)C)C4)nnc(C)c3c2C)cc1 (stereo not shown) [compound 13, 1-(3,4-dimethyl-2-(p-tolyl)-2H-pyrazolo[3,4-d]pyridazin-7-yl)-N-(3-(dimethylamino)propyl)pyrrolidine-3-carboxamide]
IC50 (human TLR9): 292 nM | IC50 (human TLR8; [1]): > 10 µM | IC50 (human TLR8; [2]): > 10 µM

Compound: Cc1ccc(-n2nc3c(N4CCCC(C(=O)NCCNC(C)C)C4)nnc(C)c3c2C)cc1 (stereo not shown) [compound 16, 1-(3,4-dimethyl-2-(p-tolyl)-2H-pyrazolo[3,4-d]pyridazin-7-yl)-N-(2-(isopropylamino)ethyl)piperidine-3-carboxamide]
IC50 (human TLR9): 46 nM | IC50 (human TLR8; [2]): ≥ 20 µM

Compound: Cc1ccc(-n2nc3c(N4CCC(C(=O)NC5CCN(C)C5)CC4)nnc(C)c3c2C)cc1 (stereo not shown) [compound 17, 1-(3,4-dimethyl-2-(p-tolyl)-2H-pyrazolo[3,4-d]pyridazin-7-yl)-N-(1-methylpyrrolidin-3-yl)piperidine-4-carboxamide]
IC50 (human TLR9): 83 nM | IC50 (human TLR8; [1]): > 10 µM | IC50 (human TLR8; [2]): > 10 µM

Compound: Cc1ccc(-n2nc3c(N4CCC(C(=O)NC5CCN(C)CC5)CC4)nnc(C)c3c2C)cc1 [compound 18, 1-(3,4-dimethyl-2-(p-tolyl)-2H-pyrazolo[3,4-d]pyridazin-7-yl)-N-(1-methylpiperidin-4-yl)piperidine-4-carboxamide]
IC50 (human TLR9): 137 nM | IC50 (human TLR8; [1]): > 10 µM | IC50 (human TLR8; [2]): > 10 µM

Next, values leading:

IC50 (human TLR9): 18 nM | inhibits TLR9-dependent responses (in words) (human TLR9): inhibit | IC50 (human TLR8; [1]): 0.74 µM | IC50 (human TLR8; [2]): 0.74 µM
Compound: Cc1ccc(-n2nc3c(N4CCC(C(=O)NCCCN5CCOCC5)CC4)nnc(C)c3c2C)cc1 [Compound No. 19x, 1-(3,4-dimethyl-2-(p-tolyl)-2H-pyrazolo[3,4-d]pyridazin-7-yl)-N-(3-morpholinopropyl)piperidine-4-carboxamide]

IC50 (human TLR9): 4 nM | inhibits TLR9-dependent responses (in words) (human TLR9): inhibit | IC50 (human TLR8; [1]): > 10 µM | IC50 (human TLR8; [2]): > 10 µM
Compound: Cc1ccc(-n2nc3c(N4CCC(C(=O)NCCN(C)C)CC4)nnc(C)c3c2C)cc1 [Compound No. 21x, 1-(3,4-dimethyl-2-(p-tolyl)-2H-pyrazolo[3,4-d]pyridazin-7-yl)-N-(2-(dimethylamino)ethyl)piperidine-4-carboxamide]

IC50 (human TLR9): 31 nM | inhibits TLR9-dependent responses (in words) (human TLR9): inhibit | IC50 (human TLR8; [1]): > 10 µM | IC50 (human TLR8; [2]): > 10 µM
Compound: Cc1ccc(-n2nc3c(N4CCC(CC(=O)NCCCN(C)C)CC4)nnc(C)c3c2C)cc1 [Compound No. 22, 2-(1-(3,4-dimethyl-2-(p-tolyl)-2H-pyrazolo[3,4-d]pyridazin-7-yl)piperidin-4-yl)-N-(3-(dimethylamino)propyl)acetamide]

IC50 (human TLR9): 308 nM | IC50 (human TLR8; [1]): > 10 µM | IC50 (human TLR8; [2]): > 10 µM
Compound: Cc1ccc(-n2nc3c(N4CCC(C(=O)NCCNC(C)C)CC4)nnc(C)c3c2C)cc1 [compound 8, 1-(3,4-dimethyl-2-(p-tolyl)-2H-pyrazolo[3,4-d]pyridazin-7-yl)-N-(2-(isopropylamino)ethyl)piperidine-4-carboxamide]

IC50 (human TLR9): 250 nM | IC50 (human TLR8; [1]): > 10 µM | IC50 (human TLR8; [2]): > 10 µM
Compound: Cc1ccc(-n2nc3c(N4CC(C(=O)NCCCN(C)C)C4)nnc(C)c3c2C)cc1 [compound 15, 1-(3,4-dimethyl-2-(p-tolyl)-2H-pyrazolo[3,4-d]pyridazin-7-yl)-N-(3-(dimethylamino)propyl)azetidine-3-carboxamide]
